# Data published in ChEMBL document CHEMBL1201862, “PubChem BioAssay data set” (2004).
# Activity calls are given as the source filed them.
# Experiments:
# [1] = target: T1, SUMO-activating enzyme (Homo sapiens, UniProt Q9UBT2); assay: SUMOylation inhibitor hit validation, confirmation, SUMOylation inhibitor project, biochemical, AlphaScreen (AID 2018); type: functional
# [2] = target: T1, SUMO-activating enzyme; assay: inhibitors of in vitro SUMOylation cascade, primary screen, biochemical, HTRF, uHTS (AID 2006); type: protein-complex assay
# [3] = target: Eukaryotic translation initiation factor 4H (Homo sapiens, UniProt Q15056); assay: human eIF4H binding inhibitors, primary screen, translation initiation inhibitor project, biochemical, uHTS, fluorescence polarization (AID 2012)
# [4] = target: Polyadenylate-binding protein 1 (Homo sapiens, UniProt P11940); assay: PABP poly(A) RNA binding inhibitors, primary screen, biochemical, fluorescence polarization, uHTS (AID 2014)
# Sequence of Polyadenylate-binding protein 1 (P11940 whole entry): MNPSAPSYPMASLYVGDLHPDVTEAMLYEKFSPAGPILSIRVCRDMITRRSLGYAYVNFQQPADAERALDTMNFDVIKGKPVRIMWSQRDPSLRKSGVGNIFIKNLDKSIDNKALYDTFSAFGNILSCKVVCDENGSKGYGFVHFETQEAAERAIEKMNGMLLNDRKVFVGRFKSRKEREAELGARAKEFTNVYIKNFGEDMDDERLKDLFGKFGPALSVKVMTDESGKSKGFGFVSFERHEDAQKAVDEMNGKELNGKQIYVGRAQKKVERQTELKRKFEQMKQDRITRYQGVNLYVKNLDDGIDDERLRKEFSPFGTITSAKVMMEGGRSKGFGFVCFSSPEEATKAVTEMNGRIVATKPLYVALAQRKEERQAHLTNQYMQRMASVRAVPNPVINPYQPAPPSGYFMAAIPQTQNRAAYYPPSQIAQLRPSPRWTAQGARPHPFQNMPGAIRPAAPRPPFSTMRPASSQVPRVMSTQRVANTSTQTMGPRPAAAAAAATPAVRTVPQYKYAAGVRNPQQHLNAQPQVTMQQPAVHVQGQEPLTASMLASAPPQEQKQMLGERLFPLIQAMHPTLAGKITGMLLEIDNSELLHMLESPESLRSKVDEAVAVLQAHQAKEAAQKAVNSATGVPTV
# [5] = target: Voltage-dependent T-type calcium channel subunit alpha-1H (Homo sapiens, UniProt O95180); type: functional;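 further: channel activity triggered by adding a high calcium stimulation buffer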
# Sequence of Voltage-dependent T-type calcium channel subunit alpha-1H (O95180 whole entry): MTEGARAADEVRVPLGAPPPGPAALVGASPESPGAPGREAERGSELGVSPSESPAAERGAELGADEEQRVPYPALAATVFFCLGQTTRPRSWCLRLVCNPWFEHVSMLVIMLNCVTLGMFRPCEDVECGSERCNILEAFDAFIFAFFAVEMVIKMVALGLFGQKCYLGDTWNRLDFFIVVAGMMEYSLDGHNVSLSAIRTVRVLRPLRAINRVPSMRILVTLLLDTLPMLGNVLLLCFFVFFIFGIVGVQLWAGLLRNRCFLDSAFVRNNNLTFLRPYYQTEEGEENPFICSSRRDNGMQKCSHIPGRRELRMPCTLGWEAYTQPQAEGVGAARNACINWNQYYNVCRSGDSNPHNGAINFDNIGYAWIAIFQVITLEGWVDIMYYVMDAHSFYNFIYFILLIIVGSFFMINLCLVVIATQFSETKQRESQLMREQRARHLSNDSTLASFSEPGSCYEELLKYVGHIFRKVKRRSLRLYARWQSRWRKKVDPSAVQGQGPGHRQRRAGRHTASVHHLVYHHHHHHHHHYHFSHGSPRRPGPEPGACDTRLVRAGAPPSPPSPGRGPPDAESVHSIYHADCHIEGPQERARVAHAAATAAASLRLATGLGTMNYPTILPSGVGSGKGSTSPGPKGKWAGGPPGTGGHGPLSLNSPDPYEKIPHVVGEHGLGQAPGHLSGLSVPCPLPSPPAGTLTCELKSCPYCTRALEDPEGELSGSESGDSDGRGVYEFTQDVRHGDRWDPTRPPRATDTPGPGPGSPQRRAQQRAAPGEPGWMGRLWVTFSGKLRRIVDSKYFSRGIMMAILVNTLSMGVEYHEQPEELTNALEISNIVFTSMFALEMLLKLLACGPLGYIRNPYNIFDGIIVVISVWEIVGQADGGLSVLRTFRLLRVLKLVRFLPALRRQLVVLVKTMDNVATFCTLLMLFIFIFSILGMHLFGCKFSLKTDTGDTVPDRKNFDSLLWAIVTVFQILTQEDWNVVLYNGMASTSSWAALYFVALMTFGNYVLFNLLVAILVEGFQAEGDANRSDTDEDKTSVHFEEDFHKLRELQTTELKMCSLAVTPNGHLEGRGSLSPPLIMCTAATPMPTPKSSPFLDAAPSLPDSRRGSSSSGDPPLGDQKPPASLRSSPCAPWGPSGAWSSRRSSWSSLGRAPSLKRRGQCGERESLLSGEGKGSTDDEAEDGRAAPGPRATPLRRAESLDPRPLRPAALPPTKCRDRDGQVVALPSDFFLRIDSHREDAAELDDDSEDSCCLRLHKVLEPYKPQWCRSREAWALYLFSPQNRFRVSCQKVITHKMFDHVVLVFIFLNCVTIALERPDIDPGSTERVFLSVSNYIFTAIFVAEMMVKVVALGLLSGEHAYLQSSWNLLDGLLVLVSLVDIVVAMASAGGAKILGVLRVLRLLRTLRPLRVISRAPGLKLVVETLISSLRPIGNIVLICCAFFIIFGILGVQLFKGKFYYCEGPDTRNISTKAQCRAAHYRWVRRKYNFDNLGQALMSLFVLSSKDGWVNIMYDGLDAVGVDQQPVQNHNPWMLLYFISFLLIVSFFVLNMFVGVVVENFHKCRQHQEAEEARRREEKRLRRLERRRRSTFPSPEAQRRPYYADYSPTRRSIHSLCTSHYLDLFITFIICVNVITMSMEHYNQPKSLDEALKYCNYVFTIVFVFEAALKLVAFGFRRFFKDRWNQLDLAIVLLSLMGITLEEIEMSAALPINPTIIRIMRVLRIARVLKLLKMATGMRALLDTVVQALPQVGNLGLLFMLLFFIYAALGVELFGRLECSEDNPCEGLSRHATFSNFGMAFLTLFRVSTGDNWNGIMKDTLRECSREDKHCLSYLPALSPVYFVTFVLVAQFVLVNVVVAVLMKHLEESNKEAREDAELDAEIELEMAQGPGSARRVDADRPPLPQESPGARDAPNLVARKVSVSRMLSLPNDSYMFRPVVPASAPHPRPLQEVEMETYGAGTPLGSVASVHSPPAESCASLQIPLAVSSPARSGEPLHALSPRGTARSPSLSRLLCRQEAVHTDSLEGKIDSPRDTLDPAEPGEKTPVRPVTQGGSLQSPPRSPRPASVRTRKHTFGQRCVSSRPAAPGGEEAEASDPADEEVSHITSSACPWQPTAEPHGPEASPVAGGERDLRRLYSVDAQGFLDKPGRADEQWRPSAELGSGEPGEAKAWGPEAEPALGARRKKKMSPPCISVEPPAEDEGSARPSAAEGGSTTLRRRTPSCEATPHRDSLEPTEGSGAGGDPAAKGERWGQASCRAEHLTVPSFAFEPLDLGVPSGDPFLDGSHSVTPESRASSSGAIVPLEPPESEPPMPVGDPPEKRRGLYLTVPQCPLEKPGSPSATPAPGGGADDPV
# [6] = target: Trypsin (Sus scrofa, UniProt P00761); assay: porcine trypsin inhibitors, dose response, selectivity assay for Rce1 protease inhibitor project, biochemical, quenched peptide fluorescence, cherry-pick (AID 488789)
# Sequence of Trypsin (P00761 whole entry): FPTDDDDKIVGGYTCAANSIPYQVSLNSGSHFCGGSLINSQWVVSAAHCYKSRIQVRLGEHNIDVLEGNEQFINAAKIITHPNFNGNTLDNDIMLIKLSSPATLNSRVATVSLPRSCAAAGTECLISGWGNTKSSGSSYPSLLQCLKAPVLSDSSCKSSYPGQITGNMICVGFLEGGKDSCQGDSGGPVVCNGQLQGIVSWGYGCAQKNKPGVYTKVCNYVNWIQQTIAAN
# [7] = target: T2, Apoptotic protease-activating factor 1 (Homo sapiens, UniProt O14727); type: functional
# T2 sequence (O14727 whole entry): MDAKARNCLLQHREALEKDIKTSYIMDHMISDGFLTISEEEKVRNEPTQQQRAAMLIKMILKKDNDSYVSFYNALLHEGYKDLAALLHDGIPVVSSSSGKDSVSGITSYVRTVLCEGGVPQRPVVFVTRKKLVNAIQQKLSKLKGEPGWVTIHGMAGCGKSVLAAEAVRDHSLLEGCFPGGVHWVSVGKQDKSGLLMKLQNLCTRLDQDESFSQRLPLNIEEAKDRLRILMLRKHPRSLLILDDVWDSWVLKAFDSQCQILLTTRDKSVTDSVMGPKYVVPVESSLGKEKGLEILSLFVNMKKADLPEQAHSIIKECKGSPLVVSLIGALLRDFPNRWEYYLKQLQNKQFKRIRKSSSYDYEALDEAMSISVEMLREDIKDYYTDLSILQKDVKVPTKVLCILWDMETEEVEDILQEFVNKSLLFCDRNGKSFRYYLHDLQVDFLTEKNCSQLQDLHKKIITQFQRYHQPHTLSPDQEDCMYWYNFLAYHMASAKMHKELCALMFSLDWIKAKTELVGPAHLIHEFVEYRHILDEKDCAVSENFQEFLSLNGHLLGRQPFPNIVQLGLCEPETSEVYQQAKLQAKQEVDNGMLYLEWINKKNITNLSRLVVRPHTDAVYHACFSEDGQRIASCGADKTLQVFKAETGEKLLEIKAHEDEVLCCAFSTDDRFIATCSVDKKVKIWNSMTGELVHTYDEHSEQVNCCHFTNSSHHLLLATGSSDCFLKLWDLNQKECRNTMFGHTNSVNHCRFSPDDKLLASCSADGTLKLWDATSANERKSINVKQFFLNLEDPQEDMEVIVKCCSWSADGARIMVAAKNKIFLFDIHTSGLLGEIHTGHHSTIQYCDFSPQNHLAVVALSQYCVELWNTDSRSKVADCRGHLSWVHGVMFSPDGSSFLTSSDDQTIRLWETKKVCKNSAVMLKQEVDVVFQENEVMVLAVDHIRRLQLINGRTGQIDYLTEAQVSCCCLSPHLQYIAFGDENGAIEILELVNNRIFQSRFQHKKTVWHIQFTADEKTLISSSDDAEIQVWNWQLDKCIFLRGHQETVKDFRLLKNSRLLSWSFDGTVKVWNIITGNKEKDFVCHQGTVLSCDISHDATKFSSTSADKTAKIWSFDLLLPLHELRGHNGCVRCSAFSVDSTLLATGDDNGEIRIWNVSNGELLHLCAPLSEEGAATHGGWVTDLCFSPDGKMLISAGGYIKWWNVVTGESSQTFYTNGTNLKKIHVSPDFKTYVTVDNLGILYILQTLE
# [8] = target: Genome polyprotein (dengue virus type 2, UniProt P29990); assay: Dengue-2 NS5 methyltransferase inhibitors, primary screen, biochemical, confirmation dose response (AID 588689); type: functional
# [9] = target: T3, Tyrosyl-DNA phosphodiesterase 2 (Homo sapiens, UniProt O95551); assay: human TDP2 enzyme inhibitors, dose response, biochemical, epi absorbance, IC50 (AID 743297)
# T3 sequence (O95551 whole entry): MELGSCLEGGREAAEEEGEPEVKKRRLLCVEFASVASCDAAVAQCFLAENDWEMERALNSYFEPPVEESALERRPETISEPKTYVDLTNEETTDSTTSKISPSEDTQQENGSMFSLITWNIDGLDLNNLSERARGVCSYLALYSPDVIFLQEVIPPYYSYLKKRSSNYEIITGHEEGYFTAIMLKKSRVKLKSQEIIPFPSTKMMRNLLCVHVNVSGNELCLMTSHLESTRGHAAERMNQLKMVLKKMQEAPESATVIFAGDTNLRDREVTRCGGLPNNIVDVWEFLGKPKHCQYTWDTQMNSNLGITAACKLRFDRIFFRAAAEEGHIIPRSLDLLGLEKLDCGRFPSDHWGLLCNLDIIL
# [10] = target: T4, Exodeoxyribonuclease V (Escherichia coli (strain K12), UniProt P04993+P07648+P08394); assay: E. coli RecBCD inhibitors, dose response, counter-screen for AddAB inhibitor project, absorbance, V66 E. coli, mutant T4 phage (AID 492957); type: functional, cell-based, Escherichia coli str. K-12 substr. MG1655
# T4 sequence (P04993 whole entry): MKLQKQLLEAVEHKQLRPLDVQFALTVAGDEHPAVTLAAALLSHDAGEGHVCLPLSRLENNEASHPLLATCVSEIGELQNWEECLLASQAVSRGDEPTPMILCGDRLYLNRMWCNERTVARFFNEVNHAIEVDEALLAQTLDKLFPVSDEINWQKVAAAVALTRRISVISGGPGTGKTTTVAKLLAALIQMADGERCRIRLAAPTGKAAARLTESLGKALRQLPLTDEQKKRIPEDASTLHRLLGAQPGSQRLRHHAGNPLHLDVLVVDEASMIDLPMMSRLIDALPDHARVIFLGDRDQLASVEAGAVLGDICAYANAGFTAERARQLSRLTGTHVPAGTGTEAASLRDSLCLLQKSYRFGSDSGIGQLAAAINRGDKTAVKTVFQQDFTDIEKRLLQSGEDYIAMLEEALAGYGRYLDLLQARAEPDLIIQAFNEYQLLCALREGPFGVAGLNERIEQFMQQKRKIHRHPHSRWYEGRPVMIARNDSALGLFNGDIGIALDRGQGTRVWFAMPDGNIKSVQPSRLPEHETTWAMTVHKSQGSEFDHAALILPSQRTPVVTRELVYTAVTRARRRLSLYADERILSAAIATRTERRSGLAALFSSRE
# T4 sequence (P07648 whole entry): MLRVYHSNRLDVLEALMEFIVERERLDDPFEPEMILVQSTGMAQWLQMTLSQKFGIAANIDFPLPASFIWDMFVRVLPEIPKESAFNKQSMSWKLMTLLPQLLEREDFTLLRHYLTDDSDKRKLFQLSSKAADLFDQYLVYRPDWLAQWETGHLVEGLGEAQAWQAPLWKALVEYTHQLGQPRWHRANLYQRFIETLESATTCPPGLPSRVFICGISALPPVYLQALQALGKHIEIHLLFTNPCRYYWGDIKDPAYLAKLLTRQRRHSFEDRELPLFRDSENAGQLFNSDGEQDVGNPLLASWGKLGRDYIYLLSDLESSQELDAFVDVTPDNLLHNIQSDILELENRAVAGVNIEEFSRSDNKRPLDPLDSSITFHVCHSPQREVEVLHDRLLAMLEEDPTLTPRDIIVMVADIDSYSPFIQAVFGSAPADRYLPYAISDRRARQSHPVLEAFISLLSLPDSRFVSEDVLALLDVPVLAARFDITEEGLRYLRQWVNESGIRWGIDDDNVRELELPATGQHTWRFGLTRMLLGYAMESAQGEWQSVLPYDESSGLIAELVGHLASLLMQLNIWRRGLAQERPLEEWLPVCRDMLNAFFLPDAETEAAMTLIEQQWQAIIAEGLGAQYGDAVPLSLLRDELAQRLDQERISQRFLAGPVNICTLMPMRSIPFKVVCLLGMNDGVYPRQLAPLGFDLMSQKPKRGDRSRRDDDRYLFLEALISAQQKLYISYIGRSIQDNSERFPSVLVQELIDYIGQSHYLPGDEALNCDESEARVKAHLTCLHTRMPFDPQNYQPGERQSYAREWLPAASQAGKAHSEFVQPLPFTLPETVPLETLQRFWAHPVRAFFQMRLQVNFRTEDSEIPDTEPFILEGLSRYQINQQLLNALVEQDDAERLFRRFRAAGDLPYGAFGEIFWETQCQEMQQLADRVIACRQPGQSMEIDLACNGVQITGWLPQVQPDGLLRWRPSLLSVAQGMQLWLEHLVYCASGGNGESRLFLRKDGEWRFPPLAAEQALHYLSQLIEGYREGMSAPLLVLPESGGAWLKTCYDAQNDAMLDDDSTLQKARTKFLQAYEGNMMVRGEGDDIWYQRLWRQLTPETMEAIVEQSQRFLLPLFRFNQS
# T4 sequence (P08394 whole entry): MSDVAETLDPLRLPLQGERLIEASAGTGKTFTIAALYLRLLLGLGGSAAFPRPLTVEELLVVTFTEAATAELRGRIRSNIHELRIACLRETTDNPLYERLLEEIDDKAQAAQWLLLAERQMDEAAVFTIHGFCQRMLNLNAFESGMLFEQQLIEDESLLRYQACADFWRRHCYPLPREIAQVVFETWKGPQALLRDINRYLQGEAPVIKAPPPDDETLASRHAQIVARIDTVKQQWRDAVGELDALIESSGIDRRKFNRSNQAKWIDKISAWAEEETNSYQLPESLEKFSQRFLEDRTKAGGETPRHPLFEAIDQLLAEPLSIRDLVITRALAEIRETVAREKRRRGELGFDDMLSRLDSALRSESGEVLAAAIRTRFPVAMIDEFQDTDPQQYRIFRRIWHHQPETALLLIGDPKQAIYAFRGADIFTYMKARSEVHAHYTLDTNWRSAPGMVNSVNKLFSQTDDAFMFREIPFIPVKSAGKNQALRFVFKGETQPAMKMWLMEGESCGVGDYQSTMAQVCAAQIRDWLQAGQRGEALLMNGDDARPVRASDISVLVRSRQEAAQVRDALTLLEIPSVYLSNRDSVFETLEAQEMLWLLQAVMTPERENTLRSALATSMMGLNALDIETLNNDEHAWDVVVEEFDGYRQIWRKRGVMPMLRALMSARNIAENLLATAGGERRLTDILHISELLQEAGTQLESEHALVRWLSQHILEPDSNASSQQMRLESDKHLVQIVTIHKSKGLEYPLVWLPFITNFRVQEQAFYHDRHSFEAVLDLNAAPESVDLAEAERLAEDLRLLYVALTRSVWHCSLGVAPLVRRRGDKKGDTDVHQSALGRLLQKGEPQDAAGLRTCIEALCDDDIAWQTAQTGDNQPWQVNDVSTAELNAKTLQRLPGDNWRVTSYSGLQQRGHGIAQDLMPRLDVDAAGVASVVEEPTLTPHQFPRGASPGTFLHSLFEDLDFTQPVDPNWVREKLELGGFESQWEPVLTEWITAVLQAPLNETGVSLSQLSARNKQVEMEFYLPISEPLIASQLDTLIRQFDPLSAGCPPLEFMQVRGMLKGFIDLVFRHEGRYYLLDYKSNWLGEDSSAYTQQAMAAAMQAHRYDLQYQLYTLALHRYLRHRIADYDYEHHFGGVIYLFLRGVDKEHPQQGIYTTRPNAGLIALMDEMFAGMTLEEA
# [11] = Counterscreen for AddAB inhibitors: absorbance-based bacterial cell-based high throughput dose response assay for inhibitors of bacterial viability. [Related pubchem assays (depositor defined):AID435030, AID449728, AID449731, AID488942, AID488955, AID488956]; type: functional
# [12] = HEp-2 cell cytotoxicity, dose response, cytotoxicity control for RSV inhibitor project, HTS (AID 2410); type: functional; settings: human respiratory syncytial virus
# [13] = Shn3 3'UTR reporter inhibitors, dose response, cell-based, Clone20 osteoblasts, firefly luciferase, cherry-picked (AID 624132); type: functional;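 further: firefly luciferase luminescence from reporter carrying the Shn3 3'UTR in osteoblasts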
# [14] = HepG2 cell cytotoxicity, dose response, cytotoxicity control for Shn3 inhibitor project, CellTiter-Glo, cherry-picked (AID 624134); type: functional, cell-based
# [15] = control 3'UTR Renilla luciferase suppression, dose response, counter-screen for Shn3 inhibitor project, cell-based, Clone20-Shn3RL, cherry-picked (AID 624133); type: functional
# [16] = THP-1 cell cytotoxicity, dose response, cytotoxicity control for non-replicating M. tuberculosis project (AID 489025); type: functional
# [17] = HepG2 cell cytotoxicity, dose response, cytotoxicity control for non-replicating M. tuberculosis project (AID 489018); type: functional; settings: Mycobacterium tuberculosis
# [18] = cells; type: functional
# T1 sequence (Q9UBE0 whole entry): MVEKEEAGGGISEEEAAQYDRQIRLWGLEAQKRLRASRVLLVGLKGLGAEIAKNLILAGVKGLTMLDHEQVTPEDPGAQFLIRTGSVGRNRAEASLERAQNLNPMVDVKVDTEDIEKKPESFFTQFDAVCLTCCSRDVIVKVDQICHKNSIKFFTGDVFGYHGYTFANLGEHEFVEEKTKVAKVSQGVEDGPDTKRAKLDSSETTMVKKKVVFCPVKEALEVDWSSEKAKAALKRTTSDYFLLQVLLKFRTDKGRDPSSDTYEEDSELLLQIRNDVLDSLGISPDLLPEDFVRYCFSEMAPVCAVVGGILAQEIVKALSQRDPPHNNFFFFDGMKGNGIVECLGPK
# T1 sequence (Q9UBT2 whole entry): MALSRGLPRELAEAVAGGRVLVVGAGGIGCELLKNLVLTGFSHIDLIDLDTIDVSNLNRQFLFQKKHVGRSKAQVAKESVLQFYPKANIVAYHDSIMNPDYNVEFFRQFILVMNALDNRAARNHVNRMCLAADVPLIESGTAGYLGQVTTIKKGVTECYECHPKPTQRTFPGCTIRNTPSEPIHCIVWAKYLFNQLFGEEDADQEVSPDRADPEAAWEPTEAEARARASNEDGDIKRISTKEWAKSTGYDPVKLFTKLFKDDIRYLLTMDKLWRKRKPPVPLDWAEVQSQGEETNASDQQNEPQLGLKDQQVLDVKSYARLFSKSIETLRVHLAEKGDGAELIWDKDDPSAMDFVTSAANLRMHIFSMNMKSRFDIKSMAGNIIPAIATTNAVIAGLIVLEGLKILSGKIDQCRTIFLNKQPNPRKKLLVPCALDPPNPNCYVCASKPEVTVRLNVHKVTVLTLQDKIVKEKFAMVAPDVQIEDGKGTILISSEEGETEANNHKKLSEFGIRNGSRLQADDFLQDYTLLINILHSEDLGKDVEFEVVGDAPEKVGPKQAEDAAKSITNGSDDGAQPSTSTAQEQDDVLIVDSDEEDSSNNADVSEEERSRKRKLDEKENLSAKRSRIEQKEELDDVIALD
smiles,measurement,setting,value
Cc1cc(/C=C2\C(=N)N3N=C(c4ccco4)SC3=NC2=O)c(C)n1Cc1ccccc1,IC50,[1],8.55 µM (active)
same,IC50,[2],7.54 µM (active)
CCN1CCN(c2nc3ccccc3nc2C(C#N)C(=O)OCc2ccccc2)CC1 (stereo not given),IC50,[3],93.8 µM (active)
same,IC50,[4],44.8 µM (active)
CC/C(=N\n1nnnc1Nc1ccccc1)c1ccccc1,EC50,[5],5.34 µM (active)
COc1c2ccoc2nc2c(OC)cccc12 [GAMMA-FAGARINE],AC50,[6],9.78 µM (active)
Cc1cccc(NC(=O)CNc2cc(C)ccc2C)c1,EC50,[5],15.2 µM (active)
COc1cc(C(c2c(C)[nH]n(-c3ccccc3)c2=O)c2c(C)[nH]n(-c3ccccc3)c2=O)cc(OC)c1OC,IC50,[1],6.66 µM (active)
same,IC50,[2],33.9 µM (active)
same,IC50,[7],24.4 µM (active)
same,IC50,[8],38.3 µM (active)
same,IC50,[9],19.9 µM (inactive)
C/C(=N\NC1=NC(=O)C(CC(=O)O)S1)c1ccccn1 (stereo not given),IC50,[10],73.3 µM (inactive)
same,IC50,[11],> 118 µM (inactive)
CC(C)(C)n1nnnc1C(c1ccc(C(F)(F)F)cc1)N(Cc1ccc(F)cc1)Cc1ccco1 (stereo not given),CC50,[12],10.3 µM (active)
same,EC50,[5],2.84 µM (active)
same,AC50,[13],10.1 µM (active)
same,AC50,[14],40.3 µM (active)
same,AC50,[15],18.8 µM (active)
COc1ccc(C(=O)Oc2cccc3cccnc23)cc1S(=O)(=O)N1CCOCC1,CC50,[16],26.6 µM (active)
same,CC50,[17],18 µM (active)
same,IC50,[18],6.24 µM (active)
CC1=CC(C)C2C(=O)N(CCC[N+](C)(C)C)C(=O)C2C1 (stereo not given),IC50,[3],97.8 µM (active)
same,IC50,[4],6.94 µM (active)
O=C(Nc1ccc(S(=O)(=O)N2CCCCCC2)cc1)c1ccc(Br)o1,EC50,[5],7.13 µM (active)
